Results from US9289430B2, “Compounds and methods for inhibiting phosphate transport” (Ardelyx, Inc., priority 2010, dated 2016).

Key:
[1] = human absorption data, from Ertl et al., J. Med. Chem. 2000; cited from earlier work
[2] = target: T1, human NaP2b (SLC34A2) (Homo sapiens, UniProt O95436); assay: NaP2b-mediated Pi transport: 33P phosphate uptake into transfected HEK293 cells; format: cell-based; conditions: human protein with threonine inserted after residue 37 and N39D, 100 uM KH2PO4, read-out: pIC50 range for human Nap2b (converted)
T1 construct: host or cells: HEK293
T1 sequence (O95436 1-690): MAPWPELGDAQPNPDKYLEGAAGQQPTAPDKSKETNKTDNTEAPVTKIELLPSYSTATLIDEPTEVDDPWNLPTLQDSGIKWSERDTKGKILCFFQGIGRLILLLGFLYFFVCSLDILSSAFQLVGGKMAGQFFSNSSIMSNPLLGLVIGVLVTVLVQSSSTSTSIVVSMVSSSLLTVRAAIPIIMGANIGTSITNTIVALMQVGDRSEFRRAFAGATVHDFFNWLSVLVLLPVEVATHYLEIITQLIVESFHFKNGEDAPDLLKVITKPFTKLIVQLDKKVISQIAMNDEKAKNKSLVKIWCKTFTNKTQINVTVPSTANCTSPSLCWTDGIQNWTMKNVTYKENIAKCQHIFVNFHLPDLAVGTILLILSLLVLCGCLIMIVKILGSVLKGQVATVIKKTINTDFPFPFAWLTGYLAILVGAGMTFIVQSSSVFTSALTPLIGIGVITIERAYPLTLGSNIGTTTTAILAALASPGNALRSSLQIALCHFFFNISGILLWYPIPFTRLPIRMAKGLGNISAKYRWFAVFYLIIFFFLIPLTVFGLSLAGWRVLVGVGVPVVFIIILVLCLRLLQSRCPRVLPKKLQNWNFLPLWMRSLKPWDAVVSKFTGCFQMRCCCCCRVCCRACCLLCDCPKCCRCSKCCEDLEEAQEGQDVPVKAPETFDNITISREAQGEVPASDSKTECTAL
Description: (§1) Materials. HEK293 cells were obtained from the American Type Culture collection and propagated per their instructions. Expression clones for rat and human NaP2b (SLC34A2) were obtained from Open Biosystems (Catalog numbers MRN1768-9510282, and MHS1010-99823026, respectively). The sequence of the human protein was mutated to insert a threonine after residue 37, and to introduce a N39D mutation.
(§2) Inhibition of Pi Transport. The rate of phosphate (Pi) uptake into HEK293 cells was measured using a modification of the method described by Mohrmann et al. (Mohrmann, I., Mohrmann, M., Biber, J., and Murer, H. (1986) Am. J. Phys. 250(3 Pt 1):G323-30.) Transfected HEK293 cells were treated with a pharmacological agent to minimize endogenous PiT-mediated phosphate transport activity, such that the only remaining sodium-dependent phosphate transport activity is that which was bestowed by introduction of the NaP2b genes.
(§3) Cells were seeded into 96-well plates at 25,000 cells/well and cultured overnight. Lipofectamine 2000 (Invitrogen) was used to introduce the NaP2b cDNA, and the cells were allowed to approach confluence during a second overnight incubation. […] Cells were then overlayed with either choline uptake buffer or sodium uptake buffer (14 mM Tris, 137 mM sodium chloride, 5.4 mM KCl, 2.8 mM CaCl2, 1.2 mM MgSO4, 100 uM KH2PO4, PiT-silencing agent, 1 mg/mL Bovine Serum Albumin, pH 7.4) containing 6-9 uCi/mL ^33P orthophosphoric acid (Perkin Elmer) and test compound. Each compound was tested at twelve concentrations ranging from 0.1 nM to 30 uM. Assays were run in duplicate.
(§4) After incubation for 3-30 minutes at room temperature, assay mixtures were removed, and the cells were washed twice with ice cold stop solution (137 mM sodium chloride, 14 mM Tris, pH 7.4). Cells were lysed by addition of 20 μL 0.1% Tween 80 followed by 100 μL scintillation fluid, and counted using a TopCount (Perkin Elmer).
(§5) pIC50 (the negative log of the IC50) values of the test compounds were calculated using GraphPad Prism.

[3] = target: T2, rat NaP2b (SLC34A2) (Rattus norvegicus, UniProt Q9JJ09); assay: as above; format: cell-based; conditions: 100 uM KH2PO4, PiT-silencing agent, read-out: pIC50 range for rat Nap2b (converted)
T2 construct: host or cells: HEK293
T2 sequence (Q9JJ09 1-695): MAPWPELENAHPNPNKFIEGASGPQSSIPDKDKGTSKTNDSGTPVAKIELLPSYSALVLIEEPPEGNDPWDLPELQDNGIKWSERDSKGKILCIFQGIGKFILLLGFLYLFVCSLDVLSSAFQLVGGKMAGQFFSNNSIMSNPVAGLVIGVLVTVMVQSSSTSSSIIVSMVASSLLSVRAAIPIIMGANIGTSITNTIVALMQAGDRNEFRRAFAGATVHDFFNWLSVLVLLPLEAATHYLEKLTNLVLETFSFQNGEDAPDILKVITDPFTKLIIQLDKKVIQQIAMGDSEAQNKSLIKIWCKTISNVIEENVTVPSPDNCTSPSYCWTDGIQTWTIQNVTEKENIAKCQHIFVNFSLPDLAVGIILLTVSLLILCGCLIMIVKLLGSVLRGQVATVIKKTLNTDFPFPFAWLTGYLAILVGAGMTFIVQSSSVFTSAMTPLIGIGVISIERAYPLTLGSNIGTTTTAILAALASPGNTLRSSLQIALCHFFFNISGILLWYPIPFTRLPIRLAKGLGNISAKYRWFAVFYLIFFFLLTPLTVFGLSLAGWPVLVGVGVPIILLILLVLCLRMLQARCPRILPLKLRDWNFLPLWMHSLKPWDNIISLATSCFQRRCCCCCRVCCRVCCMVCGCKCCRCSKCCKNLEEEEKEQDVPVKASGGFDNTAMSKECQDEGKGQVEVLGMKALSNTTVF
Description: as §1, §2, §3, §4, §5

[4] = Stability in simulated gastric and intestinal fluid; format: in vitro ADME; conditions: 6 hr, 1-20 μM
Description: Test compounds were incubated at 1-20 μM in simulated gastric fluid (SGF; standard USP solution with 3 mg/mL pepsin) or simulated intestinal fluid (SIF; standard USP solution with 3 mg/mL pancreatin) for 3 hr or 6 hr. HPLC-UV or HPLC-MS were used to determine test compound levels using peak area %. Results (Table 5) were reported as the percentage of test compound remaining after incubation in a given condition relative to test compound present at t=0 in the same condition.

[5] = Determination of compound Cmax and AUC after oral gavage; format: in vivo, Sprague-Dawley rats; conditions: Sprague-Dawley, rat plasma, nominal 10 mg/kg (actual 7.6-11 mg/kg), sampling 0.5-4 h
Description: Sprague-Dawley rats were orally gavaged with test article at a nominal dose of 2.5 or 10 mg/kg and blood was collected at 0.5, 1, 2 and 4 h. Blood samples were processed to plasma using K2EDTA as an anticoagulant. Plasma samples were treated with acetonitrile containing an internal standard, precipitated proteins removed by centrifugation. Supernatants were analyzed by LC-MS/MS and compound concentrations were determined by interpolated from a standard curve prepared in plasma. All compounds were orally dosed at the dosage shown, and pharmacokinetic parameters determined

[6] = Fecal recovery of orally administered compounds; format: in vivo, Sprague-Dawley rats; conditions: rats, oral gavage, nominal 10 mg/kg (actual 7.6-11 mg/kg), feces 0-48 hr after dosing
Description: Quantitative determination of test compound level in feces after oral gavage was performed using the same set of animals used to determine test compound concentration in plasma (Example 30). The animals were kept in metabolic cages and feces were collected from the time of dosing until 48 hr after dosing. Upon collection, feces was dried by lyophilization and ground to a visually homogenous powder. Duplicate samples of ground feces from each individual animal were weighed out and extracted using organic solvent. Extracted samples were then diluted into mobile phase and test compound levels were quantitatively determined by LC-MS/MS analysis as described in “Example 30” except that the standard curve was prepared in a feces matrix. Extraction conditions were not optimized for individual compounds, and thus may represent a minimal level of recovery.

| SMILES | % FA [1] [%] | IC50 [3] [nM] | other results |
| --- | --- | --- | --- |
| O=C(O)P(=O)(O)O [foscarnet] | 17 | – | – |
| OC[C@H]1O[C@H](OC[C@H]2O[C@H](O[C@]3(CO)O[C@H](CO)[C@@H](O)[C@@H]3O)[C@H](O)[C@@H](O)[C@@H]2O)[C@H](O)[C@@H](O)[C@H]1O [raffinose] | 0.3 | – | – |
| CN(CCN1CCOCC1)C(=O)c1cccc(C(=O)Nc2ccc(N3CCCCC3)cc2C(=O)Nc2nc(-c3cccc(C(F)(F)F)c3)n[nH]2)c1 [Example 1, N1-Methyl-N1-(2-morpholinoethyl)-N3-(4-(piperidin-1-yl)-2-((3-(3-(trifluoromethyl)phenyl)-1H-1,2,4-triazol-5-yl)carbamoyl)phenyl)isophthalamide] | – | < 1000 | IC50 [2]: < 1000 nM |
| CN(CCOCCOCCOCCC(=O)O)Cc1cccc(C(=O)Nc2ccc(N3CCCCC3)cc2C(=O)Nc2ccn(-c3cccc(C(F)(F)F)c3)n2)c1 [Example 17, 2-Methyl-1-(3-((4-(piperidin-1-yl)-2-((1-(3-(trifluoromethyl)phenyl)-1H-pyrazol-3-yl)carbamoyl)phenyl)carbamoyl)phenyl)-5,8,11-trioxa-2-azatetradecan-14-oic acid] | – | 1000 to 7940 | IC50 [2]: 1000 to 7940 nM |
| CC(=O)Nc1ccc(OCC(O)CNC(C)C)cc1 (centres unmarked) [practolol] | 95 | – | – |
| O=C(O)c1cc(/N=N/c2ccc(O)c(C(=O)O)c2)ccc1O [olsalazine] | 2.3 | – | – |
| OC[C@@H](O)[C@@H](O)[C@H](O)[C@H](O)CO [mannitol] | 26 | – | – |
| O=C(O)c1cc(/N=N/c2ccc(S(=O)(=O)Nc3ccccn3)cc2)ccc1O [sulfasalazine] | 12 | – | – |
| CCN1CCCC1CNC(=O)c1cc(S(N)(=O)=O)ccc1OC (centres unmarked) [sulpiride] | 36 | – | – |
| O=C(O)Cc1cccc(SCc2cccc(C(=O)Nc3ccc(N4CCCCC4)cc3C(=O)Nc3ccn(-c4cccc(C(F)(F)F)c4)n3)c2)c1 [Example 23, 2-(3-((3-((4-(Piperidin-1-yl)-2-((1-(3-(trifluoromethyl)phenyl)-1H-pyrazol-3-yl)carbamoyl)phenyl)carbamoyl)benzyl)thio)phenyl)acetic acid] | – | < 1000 | IC50 [2]: < 1000 nM |
| O=C(O)CCOCCOCCOCCNC(=O)c1cccc(C(=O)Nc2ccc(Cl)cc2C(=O)Nc2ccn(-c3cccc(C(F)(F)F)c3)n2)c1 [Example 25, 1-(3-((4-chloro-2-((1-(3-(trifluoromethyl)phenyl)-1H-pyrazol-3-yl)-carbamoyl)phenyl)carbamoyl)phenyl)-1-oxo-5,8,11-trioxa-2-azatetradecan-14-oic acid] | – | – | % remaining, SGF ([4]; simulated gastric fluid with 3 mg/mL pepsin): 58%; % remaining, SIF ([4]; simulated intestinal fluid with 3 mg/mL pancreatin): 95%; AUC [5]: < 3 ng·h/mL; % recovered in feces [6]: 17% |
| OC[C@H]1O[C@@H](O[C@@H]2[C@@H](CO)OC(O)(CO)[C@H]2O)[C@H](O)[C@@H](O)[C@H]1O (mixture of isomers) [lactulose] | 0.6 | – | – |
| C=CCc1ccccc1OCC(O)CNC(C)C (centres unmarked) [alprenolol] | 96 | – | – |
| Cc1ccccc1N1C(=O)c2cc(S(N)(=O)=O)c(Cl)cc2NC1C (centres unmarked) [metolazone] | 64 | – | – |
| CC(C)NCC(O)COc1cccc2[nH]ccc12 (centres unmarked) [pindolol] | 92 | – | – |
| NC[C@H]1CC[C@H](C(=O)O)CC1 [tranexamic acid] | 55 | – | – |
| O=C(O)c1ccc(SCc2cccc(C(=O)Nc3ccc(N4CCCCC4)cc3C(=O)Nc3ccn(-c4cccc(C(F)(F)F)c4)n3)c2)cc1 [Example 21, 4-((3-((4-(piperidin-1-yl)-2-((1-(3-(trifluoromethyl)phenyl)-1H-pyrazol-3-yl)carbamoyl)phenyl)carbamoyl)benzyl)thio)benzoic acid] | – | 1000 to 7940 | – |
| O=C(O)CCSCc1cccc(C(=O)Nc2ccc(Cl)cc2C(=O)Nc2ccn(-c3cccc(C(F)(F)F)c3)n2)c1 [Example 6, 3-((3-((4-Chloro-2-((1-(3-(trifluoromethyl)phenyl)-1H-pyrazol-3-yl)carbamoyl)phenyl)carbamoyl)benzyl)thio)propanoic acid] | – | 1000 to 7940 | – |
| CN(CCN1CCOCC1)C(=O)c1cccc(C(=O)Nc2ccc(N3CCCCC3)cc2C(=O)Nc2ncn(-c3cccc(C(F)(F)F)c3)n2)c1 [Example 2, N1-Methyl-N1-(2-morpholinoethyl)-N3-(4-(piperidin-1-yl)-2-((1-(3-(trifluoromethyl)phenyl)-1H-1,2,4-triazol-3-yl)carbamoyl)phenyl)isophthalamide] | – | 1000 to 7940 | – |
| C=CCOc1ccccc1OCC(O)CNC(C)C (centres unmarked) [oxprenolol] | 97 | – | – |
